{"source": "patent US20130122541A1", "about": "“MICROORGANISM PRODUCTION OF HIGH-VALUE CHEMICAL PRODUCTS, AND RELATED COMPOSITIONS, METHODS AND SYSTEMS” (The Regents of the University of Colorado, priority 2010, published 2013)", "system": "E. coli", "test": "microbe, parasite or virus in culture", "type": "cell-based", "settings": "for MIC: Escherichia coli, BW25113, read-out: MIC Assay Result (g/L 3-HP), aerobic; for % Increase Over Control: aerobic", "protocol": "For MIC evaluations, the final results are expressed in chemical agent concentrations determined by analysis of the stock solution by HPLC (i.e., see Subsection IIIb).\nThe minimum inhibitory concentration (MIC) was determined aerobically in a 96 well-plate format. […] Media supplements were added according to levels reported in the Supplements Table, where specified. Overnight cultures of strains were grown in triplicate in 5 mL LB (with antibiotic where appropriate). A 1% (v/v) inoculum was introduced into a 5 ml culture of M9 minimal media.", "note": "Read-outs that look alike come from different tables or passages of the source."}
{"smiles": "O=C(O)CCO", "note": "[3-HP, 3-hydroxypropionic acid]", "values": [{"measurement": "MIC", "setting": "strain BW25113, no modifications (control), M9", "result": 27.5, "unit": "g/L"}, {"measurement": "MIC", "setting": "strain BX_00002.0: BW25113 wild type, pKK223-mcs1 (control), M9 + Amp (100 μg/mL)", "result": 20, "unit": "g/L"}, {"measurement": "MIC", "setting": "strain BX_00003.0: BW25113 wild type, pBT-3 (control), M9 + Cm (20 μg/mL)", "result": 25, "unit": "g/L"}, {"measurement": "MIC", "setting": "strain BX_00118.0: BW25113 wild type, pJ251 (control), M9 + Kan (20 μg/mL)", "result": 25, "unit": "g/L"}, {"measurement": "MIC", "setting": "strain BX_00138.0: BW25113 wild type, pSmart-LC-Kan (control), M9 + Kan (20 μg/mL)", "result": 25, "unit": "g/L"}, {"measurement": "MIC", "setting": "strain BX_00142.0: BW25113 wild type, pSmart-LC-kan, pBT-3 (control), M9 + Kan (20 μg/mL), Cm (20 μg/mL)", "result": 20, "unit": "g/L"}, {"measurement": "MIC", "setting": "strain BX_00144.0: BW25113 wild type, pSmart-HC-Amp (control), M9 + Amp (100 μg/mL)", "result": 25, "unit": "g/L"}, {"measurement": "MIC", "setting": "strain BX_00300.0: BW25113 wild type, pSmart-LC-Kan-tyrA-aroF, M9 + Kan 20 μg/mL", "result": 35, "unit": "g/L"}, {"measurement": "MIC", "setting": "strain BX_00302.0: BW25113 wild type, pSmart-LC-Kan-folA-ORF, M9 + Kan 20 μg/mL", "result": 30, "unit": "g/L"}, {"measurement": "MIC", "setting": "strain BX_00305.0: BW25113 wild type, pSmart-LC-Kan-pheA-C1, M9 + Kan 20 μg/mL", "result": 35, "unit": "g/L"}, {"measurement": "MIC", "setting": "strain BX_00307.0: BW25113 wild type, pSmart-LC-Kan-tyrA-C1, M9 + Kan 20 μg/mL", "result": 35, "unit": "g/L"}, {"measurement": "MIC", "setting": "strain BX_00309.0: BW25113 wild type, pSmart-LC-Kan-cynTS, M9 + Kan 20 μg/mL", "result": 35, "unit": "g/L"}, {"measurement": "MIC", "setting": "strain BX_00310.0: BW25113 wild type, pSmart-LC-Kan-glyA, M9 + Kan 20 μg/mL", "result": 35, "unit": "g/L"}, {"measurement": "MIC", "setting": "strain BX_00312.0: BW25113 wild type, pSmart-LC-Kan-serA, M9 + Kan 20 μg/mL", "result": 35, "unit": "g/L"}, {"measurement": "MIC", "setting": "strain BX_00313.0: BW25113 wild type, pSmart-LC-Kan-folD, M9 + Kan 20 μg/mL", "result": 30, "unit": "g/L"}, {"measurement": "MIC", "setting": "strain BX_00314.0: BW25113 wild type, pSmart-LC-Kan-aroE, M9 + Kan 20 μg/mL", "result": 35, "unit": "g/L"}, {"measurement": "MIC", "setting": "strain BX_00315.0: BW25113 wild type, pSmart-LC-Kan-aroKB C1, M9 + Kan 20 μg/mL", "result": 35, "unit": "g/L"}, {"measurement": "MIC", "setting": "strain BX_00317.0: BW25113 wild type, pSmart-LC-Kan-ilvA operon, M9 + Kan 20 μg/mL", "result": 35, "unit": "g/L"}, {"measurement": "MIC", "setting": "strain BX_00318.0: BW25113 wild type, pSmart-LC-Kan-cysM, M9 + Kan 20 μg/mL", "result": 35, "unit": "g/L"}, {"measurement": "MIC", "setting": "strain BX_00319.0: BW25113 wild type, pK223-aroH, M9 + Amp 100 μg/mL + 1 mM IPTG", "result": 30, "unit": "g/L"}, {"measurement": "MIC", "setting": "strain BX_00322.0: BW25113 wild type, pJ61-speFED, M9 + Kan 20 μg/mL", "result": 35, "unit": "g/L"}, {"measurement": "MIC", "setting": "strain BX_00323.0: BW25113 wild type, pJ61-aroG, M9 + Kan 20 μg/mL", "result": 35, "unit": "g/L"}, {"measurement": "MIC", "setting": "strain BX_00324.0: BW25113 wild type, pJ61-thrA, M9 + Kan 20 μg/mL", "result": 35, "unit": "g/L"}, {"measurement": "MIC", "setting": "strain BX_00325.0: BW25113 wild type, pJ61-asd, M9 + Kan 20 μg/mL", "result": 35, "unit": "g/L"}, {"measurement": "MIC", "setting": "strain BX_00326.0: BW25113 wild type, pJ61-ilvA, M9 + Kan 20 μg/mL", "result": 35, "unit": "g/L"}, {"measurement": "MIC", "setting": "strain BX_00327.0: BW25113 wild type, pJ61-cysM, M9 + Kan 20 μg/mL", "result": 35, "unit": "g/L"}, {"measurement": "MIC", "setting": "strain BX_00335.0: BW25113 wild type, pSmart-HC-Amp-prs, M9 + Amp 100 μg/mL", "result": 35, "unit": "g/L"}, {"measurement": "MIC", "setting": "strain BX_00336.0: BW25113 wild type, pSmart-HC-Amp-nrdAB, M9 + Amp 100 μg/mL", "result": 35, "unit": "g/L"}, {"measurement": "MIC", "setting": "strain BX_00337.0: BW25113 wild type, pSmart-HC-Amp-nrdEF, M9 + Amp 100 μg/mL", "result": 35, "unit": "g/L"}, {"measurement": "MIC", "setting": "strain BX_00352.0: BW25113 wild type, pSmart-LC-Kan-metC C1, M9 + Amp 100 μg/mL", "result": 35, "unit": "g/L"}, {"measurement": "MIC", "setting": "strain BX_00353.0: BW25113 wild type, pSmart-HC-Amp-metC, M9 + Amp 100 μg/mL", "result": 45, "unit": "g/L"}, {"measurement": "MIC", "setting": "strain BX_00354.0: BW25113 wild type, pSmart-HC-Amp-cynTS, M9 + Amp 100 μg/mL", "result": 45, "unit": "g/L"}, {"measurement": "MIC", "setting": "strain BX_00356.0: BW25113 wild type, pSmart-HC-Amp-LysA, M9 + Amp 100 μg/mL", "result": 30, "unit": "g/L"}, {"measurement": "MIC", "setting": "strain BX_00357.0: BW25113 wild type, pKK223-aroH*445, M9 + Amp 100 μg/mL + 1 mM IPTG", "result": 30, "unit": "g/L"}, {"measurement": "MIC", "setting": "strain BX_00359.0: BW25113 wild type, pKK223-aroH*457, M9 + Amp 100 μg/mL + 1 mM IPTG", "result": 35, "unit": "g/L"}, {"measurement": "MIC", "setting": "strain BX_00361.0: BW25113 wild type, pACYC177 (Kan only)-cynTS, M9 + Kan 20 μg/mL", "result": 35, "unit": "g/L"}, {"measurement": "MIC", "setting": "strain BX_00362.0: BW25113 wild type, pACYC177 (Kan only)-aroH, M9 + Kan 20 μg/mL + 1 mM IPTG", "result": 30, "unit": "g/L"}, {"measurement": "MIC", "setting": "strain BX_00363.0: BW25113 wild type, pACYC177 (kan only)-speB, M9 + Kan 20 μg/mL", "result": 35, "unit": "g/L"}, {"measurement": "MIC", "setting": "strain BX_00364.0: BW25113 wild type, pACYC177 (Kan only)-metE (Version1) (SS090608_13), M9 + Kan 20 μg/mL + 1 mM IPTG", "result": 35, "unit": "g/L"}, {"measurement": "MIC", "setting": "strain BX_00365.0: BW25113 wild type, pACYC177 (Kan only)-metC (Version1) (SS090608_17), M9 + Kan 20 μg/mL", "result": 35, "unit": "g/L"}, {"measurement": "MIC", "setting": "strain BX_00368.0: BW25113 wild type, pBT-3-cynTS, M9 + Cm (20 μg/mL)", "result": 30, "unit": "g/L"}, {"measurement": "MIC", "setting": "strain BX_00370.0: BW25113 wild type, pBT-3-speB, M9 + Cm (20 μg/mL)", "result": 30, "unit": "g/L"}, {"measurement": "% Increase Over Control", "setting": "strain BX_00301.0 (pSmart-LC-Kan-folA-C1)", "result": 40, "unit": "%"}, {"measurement": "% Increase Over Control", "setting": "strain BX_00302.0 (pSmart-LC-Kan-folA-ORF)", "result": 20, "unit": "%"}, {"measurement": "% Increase Over Control", "setting": "strain BX_00304.0 (pSmart-LC-Kan-menA-ORF)", "result": 40, "unit": "%"}, {"measurement": "% Increase Over Control", "setting": "strain BX_00305.0 (pSmart-LC-Kan-pheA-C1)", "result": 40, "unit": "%"}, {"measurement": "% Increase Over Control", "setting": "strain BX_00307.0 (pSmart-LC-Kan-tyrA-C1)", "result": 40, "unit": "%"}, {"measurement": "% Increase Over Control", "setting": "strain BX_00309.0 (pSmart-LC-Kan-cynTS)", "result": 40, "unit": "%"}, {"measurement": "% Increase Over Control", "setting": "strain BX_00310.0 (pSmart-LC-Kan-glyA)", "result": 40, "unit": "%"}, {"measurement": "% Increase Over Control", "setting": "strain BX_00312.0 (pSmart-LC-Kan-serA)", "result": 40, "unit": "%"}, {"measurement": "% Increase Over Control", "setting": "strain BX_00313.0 (pSmart-LC-Kan-folD)", "result": 20, "unit": "%"}, {"measurement": "% Increase Over Control", "setting": "strain BX_00314.0 (pSmart-LC-Kan-aroE)", "result": 40, "unit": "%"}, {"measurement": "% Increase Over Control", "setting": "strain BX_00315.0 (pSmart-LC-Kan-aroKB C1)", "result": 40, "unit": "%"}, {"measurement": "% Increase Over Control", "setting": "strain BX_00317.0 (pSmart-LC-Kan-ilvA operon)", "result": 40, "unit": "%"}]}
